Measured values as given in patent publication US20200246284A1 (Academia Sinica, priority 2015, published 2020).
Values joined by “and” are separate entries in the source; they are usually repeats but may differ in a detail not shown here. Identical values can stand only once. Like-named read-outs stand apart in the source and are kept apart here.

Columns and labels:
MA-10-W51 = assay: Cytotoxicity leukemia; type: cell-based, human; conditions: growth factor dependent MA-10-W51
Source text: Human cord blood CD34+ cells transduced with MLL-AF9 gene: MA-10, MA-18. Human bone marrow CD34+ cells transduced with MLL-AF9 gene: MA-23. Human cord blood CD34+ cells transduced with MLL-AF9 and N-ras genes: MA-9.3, […] ).

SHP77 = assay: Cytotoxicity LCLC/SCLC; type: cell-based, human
C57Bl/6 mice = assay: Complete blood counts in healthy mice; type: in vivo, mouse
Source text: This is particularly striking in the case of neutrophils, red blood cells and platelets, whose levels are the most frequent dose limiting toxicities seen in clinic evaluation of alkylating drug therapy. There was a 3-4-fold increase in monocytes. The only negative effect was a modest reduction in WBC numbers due to mild lymphopenia at day 10 in the BO-treated group.

[1] = tested on: primary Pre-B-ALL cells in NSG mice; assay: Primary pre-B-ALL xenograft; type: in vivo, mouse; conditions: Q10D2x from day 7
Z-138 [2] = assay: Combination with BO-1055, MCL (Tables 28, 29); type: cell-based, human; conditions: read-out: IC50 single drug
REC-1 = assay: Combination with BO-1055, MCL (Tables 28, 29); type: cell-based, human; conditions: read-out: IC50 single drug
JEKO-1 [3] = conditions: human
Method: (§1) After 72 hours, the cultures were pulsed with Alamar Blue overnight, and the fluorescent intensity of resulted cultures was measured by a Synergy H1 plate-reader (BioTek Inc).

LY1 = conditions: human
Method: as §1

SUDHL-4 = conditions: human
Method: as §1

Karpas-422 = conditions: human
Method: as §1

HBL1 = conditions: human
Method: as §1

[4] = for Microsome stability, turnover: 60 mins
Ly19 = assay: cells; conditions: Homo sapiens, read-out: cytotoxicity IC50
hERG = hERG (Homo sapiens, UniProt Q12809); assay: in vitro
Sequence of hERG (Q12809 whole entry): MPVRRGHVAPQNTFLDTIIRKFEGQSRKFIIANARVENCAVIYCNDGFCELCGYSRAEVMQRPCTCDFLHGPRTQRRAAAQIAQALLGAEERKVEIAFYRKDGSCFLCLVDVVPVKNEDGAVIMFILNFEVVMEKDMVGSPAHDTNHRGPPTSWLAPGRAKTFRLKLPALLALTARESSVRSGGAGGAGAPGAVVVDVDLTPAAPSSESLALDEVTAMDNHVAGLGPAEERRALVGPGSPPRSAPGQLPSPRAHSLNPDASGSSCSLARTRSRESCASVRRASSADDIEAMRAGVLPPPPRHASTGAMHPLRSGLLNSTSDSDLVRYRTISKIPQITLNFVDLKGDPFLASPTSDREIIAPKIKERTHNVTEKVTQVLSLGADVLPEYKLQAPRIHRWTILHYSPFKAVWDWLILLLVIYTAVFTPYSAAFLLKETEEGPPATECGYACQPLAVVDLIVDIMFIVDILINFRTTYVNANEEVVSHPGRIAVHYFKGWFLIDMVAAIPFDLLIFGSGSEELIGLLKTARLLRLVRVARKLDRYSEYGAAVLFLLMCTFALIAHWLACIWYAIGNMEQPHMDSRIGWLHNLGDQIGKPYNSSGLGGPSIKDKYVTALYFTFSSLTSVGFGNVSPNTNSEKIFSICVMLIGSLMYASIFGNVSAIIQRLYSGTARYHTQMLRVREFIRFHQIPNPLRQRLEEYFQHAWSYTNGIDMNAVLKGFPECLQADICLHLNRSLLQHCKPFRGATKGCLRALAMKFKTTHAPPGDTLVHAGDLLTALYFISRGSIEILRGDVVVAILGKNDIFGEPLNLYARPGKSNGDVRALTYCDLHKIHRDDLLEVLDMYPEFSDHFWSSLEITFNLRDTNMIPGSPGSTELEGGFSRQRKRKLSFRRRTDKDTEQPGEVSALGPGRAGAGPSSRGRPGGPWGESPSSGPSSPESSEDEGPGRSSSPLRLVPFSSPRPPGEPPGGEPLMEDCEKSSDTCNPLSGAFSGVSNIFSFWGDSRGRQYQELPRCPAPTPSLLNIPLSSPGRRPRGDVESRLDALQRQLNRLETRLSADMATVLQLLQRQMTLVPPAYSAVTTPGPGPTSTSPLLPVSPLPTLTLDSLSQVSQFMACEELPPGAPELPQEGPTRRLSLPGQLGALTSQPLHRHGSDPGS

Ly18 = assay: Cytotoxicity DLBCL; conditions: read-out: cytotoxicity IC50; LY18, DLBCL GCB
Method: as §1

Microsome stability = conditions: rat, microsomes
A204 rhabdomyosarcoma = assay: Cytotoxicity sarcoma; conditions: read-out: cytotoxic activity (IC50), A204 (rhabdoid?)
Method: as §1

SUDHL-5 = assay: Cytotoxicity DLBCL; conditions: read-out: cytotoxicity IC50; SUDHL-5, DLBCL GCB
JEKO-1 [5] = assay: Cytotoxicity mantle cell lymphoma
Method: as §1

Z-138 [6] = assay: Cytotoxicity mantle cell lymphoma
Method: as §1

ICR mice = assay: Acute intravenous 14-day toxicity; conditions: for Mortality (N/N): 14 days
[7] = tested on: IMR90 fetal lung myofibroblast; assay: Cytotoxicity normal tissue 72 hr; type: cell-based, human
HL-1 cardiomyocyte = assay: Cytotoxicity normal tissue 72 hr; type: cell-based; conditions: HL-1, 72 hr
CALU-6 = type: cell-based, human
H1975 = type: cell-based, human
H358 = type: cell-based, human
HCC364 = type: cell-based, human
SK-LU-1 = type: cell-based, human
H1373 = type: cell-based, human
EBC1 = type: cell-based, human
HCC2450 = type: cell-based, human
PC1 (jap) = type: cell-based, human
H526 = assay: Cytotoxicity SCLC 72 hr alamar blue; type: cell-based, human
H678 = assay: Cytotoxicity SCLC 72 hr alamar blue; type: cell-based, human
H719 = assay: Cytotoxicity SCLC 72 hr alamar blue; type: cell-based, human
H889 = assay: Cytotoxicity SCLC 72 hr alamar blue; type: cell-based, human; conditions: read-out: IC50
[8] = 30 mg/kg i.v. every other day x5
[9] = day 10, 30 mg/kg i.v. days 1,3,5,8,10

For CN(C)CCNC(=O)c1cccc(NC(=O)Nc2ccc(N(CCCl)CCCl)cc2)c1 [BO-1055, Ureidomustine], the “cytotoxicity, dose titration (FIG. 9)” value (MA-10-W51) was “highly cytotoxic”, the IC50 (SHP77) was 40 µM and the increase in monocytes (C57Bl/6 mice; [8]) was 3-4 fold. The “suppression of hematologic parameters” value (C57Bl/6 mice; [8]) was “no significant suppression”, the HCT (C57Bl/6 mice; [9]) was 46.30 ± 1.04% and the HGB (C57Bl/6 mice; [9]) was 13.08 ± 0.25 g/dL. It also gave an MCHC (C57Bl/6 mice; [9]) of 28.28 ± 0.42 g/dL, an MCV (C57Bl/6 mice; [9]) of 51.03 ± 1.25 fL and an MPV (C57Bl/6 mice; [9]) of 6.38 ± 0.09 fL. It also gave a PDW (C57Bl/6 mice; [9]) of 7.40 ± 0.24 fL, a PLT (C57Bl/6 mice; [9]) of 1108.3 ± 76.1 K/μL and an RBC (C57Bl/6 mice; [9]) of 9.08 ± 0.18 M/μL. For the same molecule, the RDW-CV (C57Bl/6 mice; [9]) was 23.18 ± 0.64%, the RDW-SD (C57Bl/6 mice; [9]) was 32.48 ± 0.29 fL and the WBC (C57Bl/6 mice; [9]) was 5.34 ± 0.99 K/μL. The “reduction of tumor growth” value [1] was 2 log, the “survival longer than control” value [1] was about 100 days and the IC50 (Z-138 [2]) was 0.299 µM and 0.303 µM and 0.301 µM. For the same molecule, the IC50 (REC-1) was 17.7 µM and 12.5 µM and 19.3 µM, the IC50 (JEKO-1 [3]) was 0.27 µM and the IC50 (LY1) was 3.86 µM. For the same molecule, the IC50 (SUDHL-4) was 1.95 µM, the IC50 (Karpas-422) was 5.85 µM and the IC50 (HBL1) was 0.87 µM. The “Microsome stability, turnover” value [4] was 75%, the “Microsome stability, turnover” value ([4]; listed as ureidomustine) was 75% (60 mins turnover %) and the “% Remaining at 60 min” value ([4]; RLM) was 25%. For the same molecule, the “MR (metabolic rate)” value ([4]; RLM, 60 min) was 0.0203 nmol/min/mg, the IC50 (Ly19) was 0.29 µM and the IC50 (hERG) was 12.6 ± 1.64 µM. The IC50 (Ly18) was 0.61 µM, the intrinsic clearance (Microsome stability) was “High intrinsic clearance” and the IC50 (A204 rhabdomyosarcoma) was 0.08 µM. For the same molecule, the IC50 (SUDHL-5) was 4.14 µM, the IC50 (JEKO-1 [5]) was 0.27 µM and the IC50 (Z-138 [6]; read-out: cytotoxicity IC50, Z-138, mantle cell lymphoma) was 0.3 µM. The IC50 (Z-138 [6]; read-out: mean IC50±SD, Z-138) was 0.182 ± 0.15 µM, the “Post dosing deaths at >1 hr” value (ICR mice; 50 mg/kg) was 0 and the “Mortality (N/N)” value (ICR mice; 50 mg/kg i.v.) was 0/6. The “Post dosing deaths at >1 hr” value (ICR mice; 60 mg/kg) was 0, the “Mortality (N/N)” value (ICR mice; 60 mg/kg i.v.) was 0/6 and the “Post dosing deaths at >1 hr” value (ICR mice; 70 mg/kg) was 1. The “Mortality (N/N)” value (ICR mice; 70 mg/kg i.v.) was 1/6, the “Post dosing deaths at >1 hr” value (ICR mice; 80 mg/kg) was 6 and the “Mortality (N/N)” value (ICR mice; 80 mg/kg i.v.) was “all mice died and 6/6”. The “Post dosing deaths at >1 hr” value (ICR mice; 100 mg/kg) was 6 and the “Mortality (N/N)” value (ICR mice; 100 mg/kg i.v.) was 6/6.
Work on N.N.[Cl][Pt][Cl] [Cisplatin] yielded an IC50 [7] of over 100 µM, an IC50 (HL-1 cardiomyocyte) of 47 µM and an IC50 (CALU-6) of 3.25 µM. The IC50 (H1975) was at least 10 µM, the IC50 (H358) was 5.9 µM and the IC50 (HCC364) was at least 75 µM. For the same molecule, the IC50 (SK-LU-1) was 6.94 µM, the IC50 (H1373) was 9.46 µM and the IC50 (EBC1) was at least 100 µM. The IC50 (HCC2450) was at least 80 µM, the IC50 (PC1 (jap)) was at least 20 µM and the IC50 (H526) was 2.85 µM. For the same molecule, the IC50 (H678) was 3.81 µM, the IC50 (H719) was 1.12 µM and the IC50 (H889) was 0.41 µM.
